From patent US10349656B2, “Difluoromethyl-nicotinic-indanyl carboxamides” (BAYER CROPSCIENCE AKTIENGESELLSCHAFT, priority 2014, dated 2019)
One block for each compound: values may come before it.

How the values were obtained:
[1] = Log P by HPLC on reversed phase columns (EEC directive 79/831 Annex V.A8), acidic range; format: physicochemical; conditions: for chromatographic logP: LC-UV, acidic range, 0.1% formic acid in water and acetonitrile (gradient 10% to 95% acetonitrile)
Method: Measurement of Log P values was performed according to EEC directive 79/831 Annex V.A8 by HPLC (High Performance Liquid Chromatography) on reversed phase columns with the following method: ^[a] Log P value is determined by measurement of LC-UV, in an acidic range, with 0.1% formic acid in water and acetonitrile as eluent (linear gradient from 10% acetonitrile to 95% acetonitrile).
(§1) Calibration was done with straight-chain alkan2-ones (with 3 to 16 carbon atoms) with known Log P values (measurement of Log P values using retention times with linear interpolation between successive alka-nones). Lambda-max-values were determined using UV-spectra from 200 nm to 400 nm and the peak values of the chromatographic signals.
as §1, with “alkanones).” for “alka-nones).”

Pyrenophora teres = assay: In vivo preventive test on Pyrenophora teres (net blotch on barley); conditions: barley plants; for Efficacy: comparison table
Method: (§2) The active ingredients are made soluble and homogenized in a mixture of Dimethyl sulfoxide/Acetone//Tween® 80 and then diluted in water to the desired concentration.
The young plants of barley are treated by spraying the active ingredient prepared as described above. Control plants are treated only with an aqueous solution of Acetone/Dimethyl sulfoxide/Tween® 80.
After 24 hours, the plants are contaminated by spraying the leaves with an aqueous suspension of Pyreoophora teres spores. The contaminated barley plants are incubated for 48 hours at 20° C. and at 100% relative humidity and then for 12 days at 20° C. and at 70-80% relative humidity.
The test is evaluated 14 days after the inoculation. 0% means an efficacy which corresponds to that of the control plants while an efficacy of 100% means that no disease is observed.

Septoria tritici = assay: In vivo preventive test on Septoria tritici (leaf spot on wheat), DMSO/acetone/Tween 80; conditions: wheat plants; for Efficacy: dose 10 ppm, comparison table; for protection (in words): dose of 10 ppm of active ingredient
Method: as §2
The young plants of wheat are treated by spraying the active ingredient prepared as described above. Control plants are treated only with an aqueous solution of Acetone/Dimethyl sulfoxide/Tween® 80.
After 24 hours, the plants are contaminated by spraying the leaves with an aqueous suspension of Septoria tritici spores. The contaminated wheat plants are incubated for 72 hours at 18° C. and at 100% relative humidity and then for 21 days at 20° C. and at 90% relative humidity.
The test is evaluated 24 days after the inoculation. 0% means an efficacy which corresponds to that of the control plants while an efficacy of 100% means that no disease is observed.

Sphaerotheca fuliginea = assay: In vivo preventive test on Sphaerotheca fuliginea (powdery mildew on cucurbits); conditions: gherkin plants; for Efficacy: dose 10 ppm, comparison table; for protection (in words): dose of 10 ppm of active ingredient
Method: as §2
(§3) The young plants of gherkin are treated by spraying the active ingredient prepared as described above. Control plants are treated only with an aqueous solution of Acetone/Dimethyl sulfoxide/Tween® 80.
After 24 hours, the plants are contaminated by spraying the leaves with an aqueous suspension of Sphaerotheca fuliginea spores. The contaminated gherkin plants are incubated for 72 hours at 18° C. and at 100% relative humidity and then for 12 days at 20° C. and at 70-80% relative humidity.
The test is evaluated 15 days after the inoculation. 0% means an efficacy which corresponds to that of the control plants while an efficacy of 100% means that no disease is observed.

Botrytis cinerea = assay: In vivo preventive test on Botrytis cinerea (grey mould); conditions: gherkin plants
Method: as §2, §3
After 24 hours, the plants are contaminated by spraying the leaves with an aqueous suspension of Botrytis cinerea spores. The contaminated gherkin plants are incubated for 4 to 5 days at 17° C. and at 90% relative humidity.
The test is evaluated 4 to 5 days after the inoculation. 0% means an efficacy which corresponds to that of the control plants while an efficacy of 100% means that no disease is observed.

[2] = dose of 10 ppm of active ingredient
[3] = dose of 100 ppm of active ingredient

Log P[a] [1]: 3.87^[a]
SMILES: CC(C)C1CC(C)(C)c2cccc(NC(=O)c3cccnc3C(F)F)c21 (racemic) [Example 1]

Log P[a] [1]: 3.96^[a]
SMILES: CCCC1CC(C)(C)c2cccc(NC(=O)c3cccnc3C(F)F)c21 (racemic) [Example 5]

Log P[a] [1]: 4.65^[a]
SMILES: CCCC1CC(C)(C)c2cccc(NC(=O)c3ccc(Cl)nc3C(F)F)c21 (racemic) [Example 8]

Log P[a] [1]: 4.27^[a]
SMILES: CC(C)CC1CC(C)(C)c2cccc(NC(=O)c3cccnc3C(F)F)c21 (racemic) [Example 10]

Log P[a] [1]: 3.87^[a]
SMILES: CCC1CC(C)(C)c2cccc(NC(=O)c3c(F)ccnc3C(F)F)c21 (racemic) [Example 14]

Log P[a] [1]: 4.21^[a]
SMILES: CCCC1CC(C)(C)c2cccc(NC(=O)c3c(F)ccnc3C(F)F)c21 (racemic) [Example 15]

Log P[a] [1]: 3.96^[a]
SMILES: CCCC1CC(C)(C)c2cccc(NC(=O)c3cccnc3C(F)F)c21 (single isomer, unassigned) [Example 6]

Log P[a] [1]: 3.96^[a]
SMILES: CCCC1CC(C)(C)c2cccc(NC(=O)c3cccnc3C(F)F)c21 (single isomer, unassigned) [Example 7]

Log P[a] [1]: 4.27^[a]
SMILES: CC(C)CC1CC(C)(C)c2cccc(NC(=O)c3cccnc3C(F)F)c21 (single isomer, unassigned) [Example 11]

Log P[a] [1]: 4.27^[a]
SMILES: CC(C)CC1CC(C)(C)c2cccc(NC(=O)c3cccnc3C(F)F)c21 (single isomer, unassigned) [Example 12]

Further lines, the compound ahead of its results:

SMILES: CC(C)CC1CC(C)(C)c2cccc(NC(=O)c3c(F)ccnc3C(F)F)c21 (racemic) [Example 13]
Log P[a] [1]: 4.54^[a]

SMILES: CC(C)C1CC(C)(C)c2cccc(N)c21 (racemic) [Example III-01]
Log P[a] [1]: 3.37^[a]

SMILES: CCCC1CC(C)(C)c2cccc(N)c21 (racemic) [Example III-03]
Log P[a] [1]: 3.60^[a]

SMILES: CC(C)CC1CC(C)(C)c2cccc(N)c21 (racemic) [Example III-04]
Log P[a] [1]: 4.18^[a]

SMILES: CCC1CC(C)(C)c2cccc(NC(=O)c3cccnc3C(F)F)c21 (single isomer, unassigned) [Example 3]
Log P[a] [1]: 3.62^[a]

SMILES: CCC1CC(C)(C)c2cccc(NC(=O)c3cccnc3C(F)F)c21 (single isomer, unassigned) [Example 4]
Log P[a] [1]: 3.62^[a]

SMILES: CCC1CC(C)(C)c2cccc(NC(=O)c3cccnc3Cl)c21 (stereo not drawn) [2-chloro-N-(3-ethyl-1,1-dimethyl-2,3-dihydro-1H-inden-4-yl)nicotinamide, reference compound]
Efficacy (Pyrenophora teres; dose 10 ppm): 0%
Efficacy (Pyrenophora teres; dose 100 ppm): 71%
protection (in words) (Pyrenophora teres; [2]): no protection at all
protection (in words) (Pyrenophora teres; [3]): moderate protection
Efficacy (Septoria tritici): 50%
protection (in words) (Septoria tritici): moderate protection
Efficacy (Sphaerotheca fuliginea): 44%
protection (in words) (Sphaerotheca fuliginea): weak protection

SMILES: CCC1CC(C)(C)c2cccc(NC(=O)c3cccnc3C(F)F)c21 (stereo not drawn) [Example 2, 2-(difluoromethyl)-N-(3-ethyl-1,1-dimethyl-2,3-dihydro-1H-inden-4-yl)nicotinamide]
chromatographic logP [1]: 3.62
Efficacy (Botrytis cinerea; dose 100 ppm, comparison table): 93%
protection (in words) (Botrytis cinerea; [3]): very good protection
Efficacy (Pyrenophora teres; dose 10 ppm): 64%
Efficacy (Pyrenophora teres; dose 100 ppm): 93%
protection (in words) (Pyrenophora teres; [2]): moderate protection
protection (in words) (Pyrenophora teres; [3]): very good protection
Efficacy (Septoria tritici): 97%
protection (in words) (Septoria tritici): very good protection
Efficacy (Sphaerotheca fuliginea): 100%
protection (in words) (Sphaerotheca fuliginea): total protection

SMILES: CCC1CC(C)(C)c2cccc(N)c21 (stereo not drawn) [Example III-02, 3-ethyl-1,1-dimethylindan-4-amine]
chromatographic logP [1]: 2.86
